{"source": "patent US5674490A", "about": "“Antibiotic GE1655 complex and its factors A, B, and C” (Gruppa Lepetit S.p.A., priority 1995, dated 1997)", "system": "Candida albicans L145", "assay": "Candida vaginitis in ovariectomized rats", "assay_type": "in vivo, ovariectomized female CD rats", "settings": "for Mean log10 cfu ± SD/sample: i.va. twice daily, after 3 days of treatment, GE1655 complex 10, miconazole 4 mg/rat per treat.", "description": "The in vivo protective activity of the antibiotic GE1655 complex against Candida albicans in ovariectomized female CD rats (weighing 150-170 g, obtained from Charles River 7 days after surgery) was determined. Candida albicans L145 was grown overnight in Sabouraud dextrose broth (Difco) at 30° C. The culture was centrifuged at 6000 r.p.m. for 20 min at 4° C., the yeast was resuspended in nutrient broth N.2 (Oxoid) containing 15% (v/v) glycerol and stored at -80° C. After 7 days of acclimatization in a temperature and humidity controlled room, the animals received 4 mg of estradiol benzoate (Sigma) subcutaneously. Four days later they were infected by intravaginal (i.va.) instillation with 0.025 ml of thawed Candida albicans suspension (about 5×10^6 cfu/rat).\nGE1655 complex and miconazole (Sigma) were dissolved in dimethylsulfoxide (DMSO) and then diluted 1:10 with PEG 400; this risulted in homogeneous suspensions. Animals received 0.1 ml of one of these suspensions i.va. twice daily for three days starting 24 h after the infection. Control animals were treated with the vehicle (10% DMSO in PEG 400).\nThe presence of Candida was determined by inserting a disposable 0.01 ml calibrated loop into the vagina. The sample was resuspended in 0.2 ml of sterile peptonized saline and cultivated on Sabouraud dextrose agar containing 100 mg/l of rifampicin to inhibit growth of bacterial contaminants."}
{"smiles": "Clc1ccc(COC(Cn2ccnc2)c2ccc(Cl)cc2Cl)c(Cl)c1", "note": "(stereo not drawn) [Miconazole, miconazole]", "values": [{"measurement": "vaginal load compared with the control group", "setting": "2 experiments, 10 mg of GE1655 complex or 4 mg of miconazole", "value": "significantly lower (p<0.01)"}, {"measurement": "Mean log10 cfu ± SD/sample", "setting": "exp. 1", "value": "1.20 ± 1.01", "unit": "log10 cfu/sample"}, {"measurement": "Mean log10 cfu ± SD/sample", "setting": "exp. 2", "value": "1.24 ± 0.86", "unit": "log10 cfu/sample"}]}
